Measurements reported in ChEMBL document CHEMBL5113494, “Novel difluoromethyl-containing 1-((4-methoxy-3-(piperazin-1-yl)phenyl)sulfonyl)-1H-indole scaffold as potent 5-HT6R antagonists: Design, synthesis, biological evaluation, and early in vivo cognition-enhancing studies” (Bioorg Med Chem, 2022).

Experiments:
physchem [1] = details: octanol/water
physchem [2] = experiment: physchem
in vivo [3] = details: Sprague-Dawley, rat, po, 5 mg/kg
[4] = Sprague-Dawley, rat, in vivo, iv, 2 mg/kg, 24 h
in vivo [5] = details: Sprague-Dawley, rat, po, 5 mg/kg; remark: listed apart in the source
in vivo [6] = details: Sprague-Dawley, rat, po, 5 mg/kg; remark: listed apart in the source
in vivo [7] = details: Sprague-Dawley, rat, po, 5 mg/kg; remark: listed apart in the source
in vivo [8] = details: Sprague-Dawley, rat, iv, 2 mg/kg

logP (physchem [1])	pKa (physchem [2])	Compound	Cmax at 24 h (in vivo [3]) [ng/mL]	AUCt [4] [ng·h/mL]	bioavailability at 24 h (in vivo [5]) [%]	half-life at 24 h (in vivo [6]) [h]	AUC(0-t) at 24 h (in vivo [7]) [ng·h/mL]	Cmax at 24 h (in vivo [8]) [ng/mL]
3.39	8.62	COc1ccc(S(=O)(=O)n2cc(C(F)F)c3ccc(F)cc32)cc1N1CCNCC1	24	290	14.4	3.4	102	77
3.31	8.78	COc1ccc(S(=O)(=O)n2cc(C(F)F)c3cc(F)ccc32)cc1N1CCNCC1						

Continued, molecule first:

Compound	logP (physchem [1])	pKa (physchem [2])	Cmax at 24 h (in vivo [3]) [ng/mL]	AUCt [4] [ng·h/mL]	bioavailability at 24 h (in vivo [5]) [%]	half-life at 24 h (in vivo [6]) [h]	AUC(0-t) at 24 h (in vivo [7]) [ng·h/mL]	Cmax at 24 h (in vivo [8]) [ng/mL]
COc1ccc(S(=O)(=O)n2cc(C)c3ccc(F)cc32)cc1N1CCNCC1	3.3	8.78						
COc1ccc(S(=O)(=O)n2cc(C(F)F)c3cc(Cl)ccc32)cc1N1CCNCC1	3.85	8.66						
COc1ccc(S(=O)(=O)n2cc(C)c3cc(F)ccc32)cc1N1CCNCC1	3.22							
COc1ccc(S(=O)(=O)n2ccc3ccc(Br)cc32)cc1N1CCNCC1	3.73	8.68	10	153	9.35	2.1	32	133
